Source: PubChem BioAssay (NCI)
Values joined by “and” are separate entries in the source; they are usually repeats but may differ in a detail not shown here. Identical values can stand only once.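 Growth conditions: 96-well plates. Treatment: test compound, 48 hours, 5 concentrations. Analysis: linear interpolation between bracketing concentrations; unreached endpoints set to highest concentration. GI50: concentration for 50% inhibition of growth. The concentration for full growth arrest is given as TGI.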

Assays:
Assay in all cases: growth of human tumour cells (NCI), 48 h
[1] = tested on: SK-OV-3 ovarian
[2] = tested on: NCI-H226 lung
[3] = tested on: KM12 colon
[4] = tested on: M14 melanoma
[5] = tested on: U251 CNS
[6] = tested on: A549 NSCLC
[7] = tested on: NCI-H23 lung
[8] = tested on: NCI-H522 lung
[9] = tested on: NCI-H460 lung
[10] = tested on: CAKI-1 renal

O=C1/C(=C/c2ccccc2)CN(C(=O)Oc2ccc(Cl)cc2)C/C1=C\c1ccccc1
TGI [1]: 20.5 µM | TGI [2]: 16.6 µM | TGI [3]: 3.28 µM | TGI [4]: 3.48 µM | TGI [5]: 2.97 µM | TGI [6]: 16.6 µM | TGI [7]: 11.1 µM | TGI [8]: 5.51 µM | TGI [9]: 9.84 µM

O=C(N/N=C/c1cccc(O)c1O)N/N=C/c1cccc(O)c1O
TGI [1]: > 100 µM | TGI [2]: 59.5 µM | TGI [3]: > 100 µM | TGI [4]: 34 µM | TGI [5]: > 100 µM | TGI [6]: > 100 µM | TGI [7]: > 100 µM | TGI [9]: > 100 µM

O=C(O)Cc1c[nH]c2ccc(F)cc12
TGI [1]: > 100 µM | TGI [2]: > 100 µM | TGI [3]: > 100 µM | TGI [4]: > 100 µM | TGI [5]: > 100 µM | TGI [6]: > 100 µM | TGI [10]: > 100 µM | TGI [7]: > 100 µM | TGI [9]: > 100 µM

O=c1c(Cl)c(Cl)cnn1-c1ccccc1
GI50 [1]: 8.36 µM and 3.44 µM | TGI [1]: 21.2 µM and 10.6 µM | TGI [2]: 12.9 µM and 21.4 µM | TGI [3]: 21.3 µM and 23.5 µM | TGI [4]: 3.25 µM and 3.42 µM | TGI [5]: 3.37 µM and 7.42 µM | TGI [6]: 26.9 µM and 37.6 µM | GI50 [7]: 2.04 µM and 5.73 µM | TGI [7]: 5.68 µM and 13.3 µM | TGI [8]: 2.82 µM and 3.79 µM | TGI [9]: 10.3 µM and 8.61 µM

CCN1CCN(c2nc(NCCNc3ccnc4cc(Cl)ccc34)c3ccccc3n2)CC1
GI50 [1]: 2.13 µM | TGI [1]: 4.71 µM | GI50 [2]: 1.82 µM | TGI [2]: 4.05 µM | GI50 [3]: 1.63 µM | TGI [3]: 5.18 µM | GI50 [4]: 1.59 µM | TGI [4]: 3.36 µM | GI50 [5]: 2.28 µM | TGI [5]: 10.1 µM | GI50 [6]: 2.21 µM | TGI [6]: 8.48 µM | GI50 [7]: 2.77 µM | TGI [7]: 10.7 µM | GI50 [8]: 2.14 µM | TGI [8]: 4.54 µM | GI50 [9]: 1.91 µM | TGI [9]: 5.33 µM

COc1cc2c(cc1O)[C@H](Cc1ccc(Oc3cc(C[C@H]4c5cc(OC)c(OC)cc5CCN4C)ccc3OC)cc1)NCC2
TGI [2]: 26.2 µM | TGI [3]: 25.7 µM | TGI [4]: 3.56 µM | TGI [5]: 24.3 µM | TGI [6]: 32.8 µM | TGI [10]: 19.8 µM | TGI [7]: 24.2 µM | TGI [9]: 27.7 µM

O=c1[nH]c(=O)n(C2CC(O)C(CO)O2)cc1C#Cc1c(F)c(F)c(F)c(F)c1F (stereo not given)
TGI [1]: > 100 µM | TGI [2]: > 100 µM | TGI [3]: > 100 µM | TGI [4]: > 100 µM | TGI [5]: > 100 µM | TGI [6]: > 100 µM | TGI [10]: > 100 µM | TGI [7]: > 100 µM | TGI [9]: > 100 µM

CCOC(=O)c1c(N)n(-c2ccccc2)c(=S)n(-c2ccccc2)c1=O
TGI [2]: > 100 µM | TGI [3]: > 100 µM | TGI [4]: > 100 µM | TGI [5]: > 100 µM | TGI [6]: > 100 µM | TGI [7]: > 100 µM | TGI [8]: > 100 µM | TGI [9]: > 100 µM

C[C@]12CCC(=O)C=C1CC[C@@H]1C2CC[C@]2(C)NC(=O)C(C#N)CC12 (stereo not given in full)
TGI [1]: > 100 µM | TGI [2]: > 100 µM | TGI [4]: > 100 µM | TGI [5]: > 100 µM | TGI [6]: > 100 µM | TGI [10]: > 100 µM | TGI [7]: > 100 µM | TGI [9]: > 100 µM

CC1=CCCC(OC(N)=O)C1 (stereo not given)
TGI [1]: > 100 µM | TGI [3]: > 100 µM | TGI [4]: > 100 µM | TGI [5]: > 100 µM | TGI [6]: > 100 µM | TGI [10]: > 100 µM | TGI [7]: > 100 µM | TGI [9]: > 100 µM

COC(=O)[C@@H](C)C[C@H](Cc1ccccc1)NC(=O)c1nc([C@@H](C[C@H](C(C)C)N(C)C(=O)[C@@H](NC(=O)[C@H]2CCCN2C)C(C)C)OC(C)=O)sc1C
GI50 [1]: < 0.0025 µM | TGI [1]: > 25 µM | GI50 [2]: 0.16 µM | TGI [2]: > 25 µM | GI50 [3]: < 0.0025 µM | TGI [3]: > 25 µM | GI50 [5]: 0.00347 µM | TGI [5]: > 25 µM | GI50 [6]: 0.0207 µM | TGI [6]: > 25 µM | GI50 [7]: 0.00806 µM | TGI [7]: > 25 µM | GI50 [8]: < 0.0025 µM | TGI [8]: < 0.0025 µM | GI50 [9]: < 0.0025 µM | TGI [9]: > 25 µM

CC(C)(C)C1=NC(S)NC(CCC(=O)Nc2ccccc2[N+](=O)[O-])=C1 (stereo not given)
TGI [1]: > 100 µM | TGI [2]: > 100 µM | TGI [3]: > 100 µM | TGI [4]: > 100 µM | TGI [5]: > 100 µM | TGI [6]: > 100 µM | TGI [10]: > 100 µM | TGI [7]: > 100 µM | TGI [9]: > 100 µM

COc1cc([C@@H]2c3cc4c(cc3[C@@H](NC(=O)c3cccc([N+](=O)[O-])c3)C3COC(=O)[C@@H]32)OCO4)cc(OC)c1O (stereo not given in full)
TGI [2]: 1.02 µM | TGI [3]: 10.8 µM | TGI [4]: > 19.8 µM | TGI [5]: 1.26 µM | TGI [6]: 1.72 µM | TGI [10]: 4.31 µM | TGI [7]: 1.11 µM | TGI [9]: 1.32 µM

CCCCn1/c(=N/C(=S)N(C)C)ss/c1=N\C(=S)N(C)C
TGI [1]: > 100 µM | TGI [2]: > 100 µM | TGI [3]: > 100 µM | TGI [4]: > 100 µM | TGI [5]: > 100 µM | TGI [6]: > 100 µM | TGI [10]: > 100 µM | TGI [7]: > 100 µM | TGI [9]: > 100 µM

ClCc1ccccc1CSc1ncnc2nc[nH]c12
GI50 [1]: > 60 µM | TGI [1]: > 60 µM | GI50 [2]: > 60 µM | TGI [2]: > 60 µM | GI50 [3]: > 60 µM | TGI [3]: > 60 µM | GI50 [4]: > 60 µM | TGI [4]: > 60 µM | GI50 [5]: > 60 µM | TGI [5]: > 60 µM | GI50 [10]: > 60 µM | TGI [10]: > 60 µM | GI50 [7]: > 60 µM | TGI [7]: > 60 µM | GI50 [9]: > 60 µM | TGI [9]: > 60 µM

O=[N+]([O-])c1ccc(NSc2ccccc2)cc1
TGI [1]: 87.3 µM | TGI [3]: > 100 µM | TGI [4]: 64.5 µM | TGI [5]: > 100 µM | TGI [6]: > 100 µM | TGI [7]: > 100 µM | TGI [8]: 39.4 µM | TGI [9]: > 100 µM

OCc1c(-c2cccc3ccccc23)sc(-c2cccc3ccccc23)c1CO
TGI [1]: 29.3 µM | TGI [2]: 32.9 µM | TGI [3]: 26.4 µM | TGI [4]: 28.9 µM | TGI [5]: 24.9 µM | TGI [7]: 30.1 µM | TGI [8]: 22.9 µM | TGI [9]: 34.7 µM
